Read-outs that look alike come from different tables or passages of the source.
Molecular target: T1, SFRP-1 (Homo sapiens, UniProt Q8N474)
T1 sequence (Q8N474 32-314): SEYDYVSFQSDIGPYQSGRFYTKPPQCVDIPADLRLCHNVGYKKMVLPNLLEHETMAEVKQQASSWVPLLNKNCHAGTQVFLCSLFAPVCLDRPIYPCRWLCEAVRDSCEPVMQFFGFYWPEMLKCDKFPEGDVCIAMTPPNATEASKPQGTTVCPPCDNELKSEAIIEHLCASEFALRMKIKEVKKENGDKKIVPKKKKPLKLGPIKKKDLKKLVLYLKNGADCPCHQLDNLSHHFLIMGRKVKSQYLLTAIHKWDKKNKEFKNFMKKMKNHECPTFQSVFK
Assay: Cell-based assay for in vitro measurement of SFRP-1/SARP2 antagonist activity (U2OS cells co-transfected with 16x TCF-tk-Luciferase reporter, Wnt and hSFRP-1);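 also: U2OS cells co-transfected with a TCF-tk luciferase reporter, a Wnt vector, hSFRP-1 or empty vector and CMV-βgal, luciferase luminescence read in cell lysates alongside βgal activity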
Details: U2OS; for fold induction at 10 µM: read-out: Fold Induction with SFRP-1, U2OS cells, single dose 10 μM, luciferase reporter, fold induction over SFRP-1 control

[1] = read-out: Fold Induction with SFRP-1, Conc 20 μM, with SFRP-1, fold induction over SFRP-1 control, single dose
[2] = read-out: Fold Induction without SFRP-1, Conc 20 μM, without SFRP-1, single dose
[3] = read-out: Fold Induction with SFRP-1, Conc 15 μM, with SFRP-1, fold induction over SFRP-1 control, single dose
[4] = read-out: Fold Induction without SFRP-1, Conc 15 μM, without SFRP-1, single dose
[5] = read-out: Fold Induction with SFRP-1, Conc 30 μM, with SFRP-1, fold induction over SFRP-1 control, single dose
[6] = read-out: Fold Induction without SFRP-1, Conc 30 μM, without SFRP-1, single dose
[7] = read-out: Fold Induction with SFRP-1, Conc 15 μM, single dose, luciferase reporter, fold induction over SFRP-1 control, cells with SFRP-1
[8] = read-out: Fold Induction without SFRP-1, Conc 15 μM, single dose, luciferase reporter, cells without SFRP-1 (specificity control)

Compound	fold induction at 15 µM [3]	fold induction at 15 µM [4]	other results
Cc1ccc(S(=O)(=O)c2ccc(C)c(S(=O)(=O)N[C@H]3C[C@@H]3c3ccccc3)c2)cc1 [Example 253, 2-methyl-5-[(4-methylphenyl)sulfonyl]-N-[(1S,2R)-2-phenylcyclopropyl]benzenesulfonamide]	–	–	fold induction at 20 µM [1]: 1.4; fold induction at 20 µM [2]: 0.9
Cc1ccc(S(=O)(=O)c2ccccc2)c(C)c1S(=O)(=O)NC1CCOCC1 [Example 473, 2,6-dimethyl-3-(phenylsulfonyl)-N-(tetrahydro-2H-pyran-4-yl)benzenesulfonamide]	0.9	0.9	–
Cc1c(S(=O)(=O)NCCc2ccccc2)cccc1S(=O)(=O)c1ccccc1 [Example 302, 2-methyl-N-(2-phenylethyl)-3-(phenylsulfonyl)benzenesulfonamide]	1.2	1.2	–
Cc1cc(C)c(S(=O)(=O)c2ccccc2)cc1S(=O)(=O)NCC1CCOCC1 [Example 385, 2,4-dimethyl-5-(phenylsulfonyl)-N-(tetrahydro-2H-pyran-4-ylmethyl)benzenesulfonamide]	2.7	1	–
CC(=O)NCCNS(=O)(=O)c1cccc(S(=O)(=O)c2ccccc2)c1 [Example 190, N-[2-({[3-(phenylsulfonyl)phenyl]sulfonyl}amino)ethyl]acetamide]	–	–	fold induction at 30 µM [5]: 1.2; fold induction at 30 µM [6]: 1
COc1ccc(CCNS(=O)(=O)c2cc(S(=O)(=O)c3ccc(Cl)cc3)ccc2C)cc1OC [Example 92, 5-[(4-chlorophenyl)sulfonyl]-N-[2-(3,4-dimethoxyphenyl)ethyl]-2-methylbenzenesulfonamide]	–	–	fold induction at 30 µM [5]: 1; fold induction at 30 µM [6]: 0.4
O=S(=O)(NCCc1ccccc1F)c1cccc(S(=O)(=O)c2ccccc2)c1 [Example 82, N-[2-(2-fluorophenyl)ethyl]-3-(phenylsulfonyl)benzenesulfonamide]	1.2	1	–
Cc1ccc(S(=O)(=O)c2ccccc2)cc1S(=O)(=O)NC[C@@H](C)c1ccccc1 [Example 262, 2-methyl-N-[(2S)-2-phenylpropyl]-5-(phenylsulfonyl)benzenesulfonamide]	1.6	1.1	–
O=C(NCCNS(=O)(=O)c1cc(S(=O)(=O)c2ccccc2)ccc1C(F)(F)F)c1ccc(Cl)cc1 [Example 778, 4-Chloro-N-[2-({[5-(phenylsulfonyl)-2-(trifluoromethyl)phenyl]sulfonyl}amino)ethyl]benzamide]	–	–	fold induction at 10 µM: 1.2
Cc1ccc(S(=O)(=O)c2cccc(C#N)c2)cc1S(=O)(=O)NCCc1ccccn1 [Example 409, 5-[(3-cyanophenyl)sulfonyl]-2-methyl-N-(2-pyridin-2-ylethyl)benzenesulfonamide]	2.2	1.3	–
O=S(=O)(NCCN1CCOCC1)c1cccc(S(=O)(=O)c2ccccc2)c1 [Example 191, N-(2-morpholin-4-ylethyl)-3-(phenylsulfonyl)benzenesulfonamide]	–	–	fold induction at 30 µM [5]: 1.2; fold induction at 30 µM [6]: 1.2
CCOc1ccc(CCNS(=O)(=O)c2cc(S(=O)(=O)c3ccccc3)ccc2CC)cc1OC [Example 149, N-[2-(4-ethoxy-3-methoxyphenyl)ethyl]-2-ethyl-5-(phenylsulfonyl)benzenesulfonamide]	3.1	1.1	–
Cc1ccc(C)n1CC1CCN(S(=O)(=O)c2cc(S(=O)(=O)c3ccccc3)ccc2Cl)CC1 [Example 653, 1-{[2-chloro-5-(phenylsulfonyl)phenyl]sulfonyl}-4-[(2,5-dimethyl-1H-pyrrol-1-yl)methyl]piperidine]	–	–	fold induction at 15 µM [7]: 1; fold induction at 15 µM [8]: 1
Cc1ccc(S(=O)(=O)c2ccccc2)cc1S(=O)(=O)NCCC(=O)NC1CCCc2ccccc21 (stereo not drawn) [Example 667, N^3-{[2-methyl-5-(phenylsulfonyl)phenyl]sulfonyl}-N-(1,2,3,4-tetrahydronaphthalen-1-yl)-β-alaninamide]	–	–	fold induction at 10 µM: 0.9
Cc1ccc(S(=O)(=O)c2ccc(F)cc2)cc1S(=O)(=O)NCCC(=O)O [Example 180, N-({5-[(4-fluorophenyl)sulfonyl]-2-methylphenyl}sulfonyl)-beta-alanine]	1.2	1	–
CC(C)c1ccc(S(=O)(=O)c2ccc(F)cc2)cc1S(=O)(=O)NC1CCN(C(=S)Nc2ccc3c(c2)C(=O)OC32c3ccc(O)cc3Oc3cc(O)ccc32)CC1 [Example 538, N-(3′,6′-dihydroxy-3-oxo-3H-spiro[2-benzofuran-1,9′-xanthen]-5-yl)-4-[({5-[(4-fluorophenyl)sulfonyl]-2-isopropylphenyl}sulfonyl)amino]piperidine-1-carbothioamide]	–	–	fold induction at 15 µM [7]: 2.4; fold induction at 15 µM [8]: 1.1
Cc1ccc(S(=O)(=O)c2ccc(F)cc2)cc1S(=O)(=O)NCCC1CCCN1C (stereo not drawn) [Example 164, 5-[(4-fluorophenyl)sulfonyl]-2-methyl-N-[2-(1-methylpyrrolidin-2-yl)ethyl]benzenesulfonamide]	1.9	1.1	–
CN(C)c1ccc(S(=O)(=O)c2ccccc2)cc1S(=O)(=O)NCCc1ccccn1 [Example 601, 2-(dimethylamino)-5-(phenylsulfonyl)-N-(2-pyridin-2-ylethyl)benzenesulfonamide]	–	–	fold induction at 15 µM [7]: 2; fold induction at 15 µM [8]: 0.9
Cc1ccc(S(=O)(=O)c2ccc(C(C)(C)O)cc2)cc1S(=O)(=O)NCCc1ccccn1 [Example 405, 5-{[4-(1-hydroxy-1-methylethyl)phenyl]sulfonyl}-2-methyl-N-(2-pyridin-2-ylethyl)benzenesulfonamide]	2.1	1.1	–
Cc1ccc(S(=O)(=O)c2ccccc2)cc1S(=O)(=O)NCC1CCOCC1 [Example 382, 2-methyl-5-(phenylsulfonyl)-N-(tetrahydro-2H-pyran-4-ylmethyl)benzenesulfonamide]	2.4	0.9	–
CCS(=O)(=O)c1cccc(S(=O)(=O)c2ccc(C)c(S(=O)(=O)NCCc3ccccn3)c2)c1 [Example 429, 5-{[3-(ethylsulfonyl)phenyl]sulfonyl}-2-methyl-N-(2-pyridin-2-ylethyl)benzenesulfonamide]	0.9	0.8	–
CN1CCN(CCCNS(=O)(=O)c2cc(S(=O)(=O)c3ccccc3)ccc2Cl)CC1 [Example 642, 2-chloro-N-[3-(4-methylpiperazin-1-yl)propyl]-5-(phenylsulfonyl)benzenesulfonamide]	–	–	fold induction at 15 µM [7]: 2.2; fold induction at 15 µM [8]: 1.1
COc1ccc(C(=O)NCCNS(=O)(=O)c2cc(S(=O)(=O)c3ccccc3)ccc2C(F)(F)F)cc1 [Example 780, 4-Methoxy-N-[2-({[5-(phenylsulfonyl)-2-(trifluoromethyl)phenyl]sulfonyl}amino)ethyl]benzamide]	–	–	fold induction at 10 µM: 1.7
Cc1ccc(S(=O)(=O)c2ccc(Br)cc2)cc1S(=O)(=O)NC1CCOCC1 [Example 375, 5-[(4-bromophenyl)sulfonyl]-2-methyl-N-(tetrahydro-2H-pyran-4-yl)benzenesulfonamide]	1.9	0.9	–
Cc1cc(C)cc(S(=O)(=O)c2ccc(C)c(S(=O)(=O)NCCCn3ccnc3)c2)c1 [Example 343, 5-[(3,5-dimethylphenyl)sulfonyl]-N-[3-(1H-imidazol-1-yl)propyl]-2-methylbenzenesulfonamide]	2.8	1	–
CCc1ccc(S(=O)(=O)c2ccccc2)cc1S(=O)(=O)NC1Cc2ccccc2C1 [Example 266, N-2,3-dihydro-1H-inden-2-yl-2-ethyl-5-(phenylsulfonyl)benzenesulfonamide]	2.7	1.2	–
Cc1ccc(S(=O)(=O)c2ccccc2)cc1S(=O)(=O)NC1CC(C)(C)NC(C)(C)C1 [Example 411, 2-methyl-5-(phenylsulfonyl)-N-(2,2,6,6-tetramethylpiperidin-4-yl)benzenesulfonamide]	1.6	1	–
O=S(=O)(N[C@H]1C[C@@H]1c1ccccc1)c1cccc(S(=O)(=O)c2ccccc2)c1 [Example 259, N-[(1S,2R)-2-phenylcyclopropyl]-3-(phenylsulfonyl)benzenesulfonamide]	–	–	fold induction at 20 µM [1]: 1; fold induction at 20 µM [2]: 1.1
CCc1ccc(S(=O)(=O)c2ccccc2)cc1S(=O)(=O)NCCOC [Example 229, 2-ethyl-N-(2-methoxyethyl)-5-(phenylsulfonyl)benzenesulfonamide]	2.6	0.8	–
CCc1ccc(S(=O)(=O)c2ccccc2)cc1S(=O)(=O)NCCc1ccc(S(N)(=O)=O)cc1 [Example 145, N-{2-[4-(aminosulfonyl)phenyl]ethyl}-2-ethyl-5-(phenylsulfonyl)benzenesulfonamide]	2.2	1.2	–
